Legend:
[1] = molecular target: T1, hM1 (Homo sapiens, UniProt P11229); assay: Competitive [3H]NMS radioligand binding, CHO-K1 membranes expressing hM1; conditions: for Ki: [3H]NMS, CHO-hM1 cell membrane preparations, read-out: Affinity: Ki ± SD hM1; for x-Fold Selectivity for hM1 vs. hM2: ratio of the Ki values hM2/hM1; for x-Fold Selectivity for hM1 vs. hM3: ratio of the Ki values hM3/hM1; for x-Fold Selectivity for hM1 vs. hM4: ratio of the Ki values hM4/hM1; for x-Fold Selectivity for hM1 vs. hM5: ratio of the Ki values hM5/hM1
T1 sequence (P11229 1-460): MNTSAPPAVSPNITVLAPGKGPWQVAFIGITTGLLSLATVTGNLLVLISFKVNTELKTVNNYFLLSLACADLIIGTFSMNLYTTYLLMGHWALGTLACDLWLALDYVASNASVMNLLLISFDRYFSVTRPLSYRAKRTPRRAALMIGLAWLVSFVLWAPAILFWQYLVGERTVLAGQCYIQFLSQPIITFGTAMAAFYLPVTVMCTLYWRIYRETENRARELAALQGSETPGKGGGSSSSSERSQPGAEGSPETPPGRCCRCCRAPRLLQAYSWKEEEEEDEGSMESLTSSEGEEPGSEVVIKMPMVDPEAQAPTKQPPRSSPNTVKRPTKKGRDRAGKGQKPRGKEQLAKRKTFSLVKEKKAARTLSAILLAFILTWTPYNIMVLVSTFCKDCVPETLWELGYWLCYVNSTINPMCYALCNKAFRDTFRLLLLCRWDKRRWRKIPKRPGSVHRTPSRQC
Text: The arecaidine esters’ affinities towards the human mAChR subtypes hM1–hM5 were studied in a competitive radioligand binding assay using CHO-K1 cell membrane homogenates expressing a single mAChR subtype and tritiated N-methyl scopolamine methyl chloride ([^3H]NMS). To speed up our affinity testing regime, we subjected all test substances to preliminary single-concentration displacement assays, as described previously. Compounds with percent displacements below 75% at any of the subtypes were dropped from further investigations (Table S1). For compounds meeting the percent displacement threshold (8c, 10b, 10c, 17b, 18b, and 25), inhibition constants (Ki) were assessed in dose-dependent displacement experiments (Table 2).
Cell membranes bearing hM1-hM5 receptors were prepared as described previously. Briefly, stably transfected CHO-K1 cells were grown to at least 80% confluency in T175 flasks, washed with ice-cold DPBS, and scraped into a mixture of ice-cold 2 mL 10 mM Tris-HCl, 1 mM EDTA-buffer, pH 7.4 and 200 µL protease inhibitor. A cell homogenate was prepared by passing the cell suspension through a G29 needle. The cell homogenates corresponding to two T175 flasks were combined and subsequently centrifuged (10 min, 1000× g, 4 °C). Ultracentrifugation of the supernatant (1 h, 100,000× g, 4 °C) yielded a membrane pellet, which was suspended in 250 µL 50 mM Tris-HCl buffer, pH 7.4 and stored at −80 °C.
Then, 5 µL of test compound in DMSO, 50 µL of [^3H]NMS in assay buffer, and 445 µL of membrane suspension in assay buffer were incubated for 90 min at 23 °C in PP tubes. Maximum binding was measured by using 5 µL DMSO, and nonspecific binding was measured by using 5 µL of 1 µM scopolamine in DMSO. The effective concentration of [^3H]NMS was 0.2 nM, 0.3 nM, 0.8 nM, 0.2 nM, and 1 nM for M1–M5 and 4–30 µg membrane were used per tube. The membrane-bound radioactivity was recovered by filtration through Whatman™ GF/B glass fiber filters presoaked in aqueous 0.1% PEI using an M-36 tygon tubed cell harvester (Brandel®, Gaithersburg, MD, USA). Membranes were washed three times with ice-cold washing buffer (50 mM Tris, pH 7.4) before being dried, transferred to 2 mL scintillation cocktail (UltimaGold™, high flashpoint LSC cocktail, PerkinElmer, Waltham, MA, USA) and counted in a β-counter (Hidex TDCR liquid scintillation counter in CPM mode). IC50 values were calculated by a variable slope logistic regression using at least five distinct concentrations of test compounds, pipetted in triplicates.

[2] = High-throughput HPLC-logD; assay type: physicochemical; conditions: octadecyl-poly(vinyl alcohol) column, methanol / 0.01 M sodium phosphate buffer pH 7.4
Text: For this, logD values were estimated in an HPLC-based high-throughput assay employing an octadecyl-poly(vinyl alcohol) stationary phase. The absence of silanol groups renders this type of column especially suited in case of analytes with hydrogen bond donor capabilities as it avoids overestimating their lipophilicity.
Briefly, a mixture of toluene (≥98%, Sigma-Aldrich, St. Louis, MO, USA) and triphenylene (≥99.9%, Carl Roth, Karlsruhe, Germany) was used as internal standard. Samples were dissolved in the internal standard mixture. Using gradient elution, the injection volume was set to 7 µL, the flow rate was 1.5 mL/min, and the mobile phase consisted of a mixture of methanol and 0.01 M sodium phosphate buffer pH 7.4. The HPLC-logD values were derived from the measured retention times following the previously published equation [21, 40].

SMILES	Ki [1] [nM]	x-Fold Selectivity for hM1 vs. hM2 [1] [x-fold]	x-Fold Selectivity for hM1 vs. hM3 [1] [x-fold]	x-Fold Selectivity for hM1 vs. hM4 [1] [x-fold]	x-Fold Selectivity for hM1 vs. hM5 [1] [x-fold]	chromatographic logD [2]	melting point [°C]
CN1CCC=C(C(=O)OCc2ccc(CO)cc2)C1 [Compound 8c, 4-(hydroxymethyl)benzyl 1-methyl-1,2,5,6-tetrahydropyridine-3-carboxylate]	525 ± 36	>1.9	1.3	1.3	0.8	1.03 ± 0.04	
CN1CCC=C(C(=O)OC(c2ccccc2)c2cccc(O)c2)C1 (stereo not shown) [Compound 17b, (3-hydroxyphenyl)(phenyl)methyl 1-methyl-1,2,5,6-tetrahydropyridine-3-carboxylate]	5.5 ± 0.5		3.7	3.3	2.0	2.69 ± 0.01	143 to 144
CN1CCC=C(C(=O)OCC(O)(c2ccccc2)c2ccccc2)C1 [Compound 25, 2-hydroxy-2,2-diphenylethyl 1-methyl-1,2,5,6-tetrahydropyridine-3-carboxylate]	231 ± 60	>4.3	1.2	0.9	1.2	2.69 ± 0.01	150 to 153
CN1CCC=C(C(=O)OCc2cccc(O)c2)C1 [Compound 18b, 3-hydroxybenzyl 1-methyl-1,2,5,6-tetrahydropyridine-3-carboxylate]	259 ± 75		0.7	2.4	0.35	1.57 ± 0.04	115 to 119
CN1CCC=C(C(=O)OC(c2ccccc2)c2ccc(CO)cc2)C1 (stereo not shown) [Compound 10c, (4-(hydroxymethyl)phenyl)(phenyl)methyl 1-methyl-1,2,5,6-tetrahydropyridine-3-carboxylate]	74 ± 3.2	13.2	2.0	1.3	1.0	2.8 ± 0.2	

— article PMC9145622, “Synthesis, Biological Evaluation, and Docking Studies of Antagonistic Hydroxylated Arecaidine Esters Targeting mAChRs” (Molecules, 2022)
